Data from patent US8044198B2, “Sirtuin modulating compounds” (Sirtris Pharmaceuticals, Inc., priority 2005, dated 2011).
Where two headings read alike, the source gives them in different places.

How the values were obtained:
[1] = target: T1, SIRT1 (Homo sapiens, UniProt Q96EB6); assay: SIRT1 fluorescence polarization (FP) deacetylation assay with p53-based peptide substrates; assay type: biochemical; details: Sirt1 Inhibitors
T1 sequence (Q96EB6 1-747): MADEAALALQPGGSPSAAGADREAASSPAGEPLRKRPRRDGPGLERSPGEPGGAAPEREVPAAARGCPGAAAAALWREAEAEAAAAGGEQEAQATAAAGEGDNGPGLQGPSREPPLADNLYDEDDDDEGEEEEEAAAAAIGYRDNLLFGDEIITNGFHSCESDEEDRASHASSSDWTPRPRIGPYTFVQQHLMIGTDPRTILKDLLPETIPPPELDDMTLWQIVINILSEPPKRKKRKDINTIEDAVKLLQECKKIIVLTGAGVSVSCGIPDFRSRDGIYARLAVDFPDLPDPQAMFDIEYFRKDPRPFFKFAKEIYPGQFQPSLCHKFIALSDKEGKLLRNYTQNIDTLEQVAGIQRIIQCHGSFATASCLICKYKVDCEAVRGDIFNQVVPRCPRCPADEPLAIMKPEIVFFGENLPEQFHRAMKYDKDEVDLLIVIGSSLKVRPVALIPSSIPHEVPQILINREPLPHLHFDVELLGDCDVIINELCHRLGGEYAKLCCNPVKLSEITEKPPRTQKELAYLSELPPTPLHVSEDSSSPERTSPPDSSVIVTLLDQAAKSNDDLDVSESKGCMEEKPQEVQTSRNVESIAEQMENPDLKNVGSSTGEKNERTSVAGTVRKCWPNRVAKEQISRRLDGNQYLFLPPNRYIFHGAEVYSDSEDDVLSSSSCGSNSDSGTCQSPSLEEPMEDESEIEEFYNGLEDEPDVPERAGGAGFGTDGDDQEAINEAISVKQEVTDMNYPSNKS
Method: A fluorescence polarization or mass spectrometry based assay was used to identify modulators of SIRT1 activity. The same assay may be used to identify modulators of any sirtuin protein. The fluorescence polarization assays utilizes one of two different peptides based on a fragment of p53, a known sirtuin deacetylation target. Compounds 1-18 were tested using a substrate containing peptide 1 having 14 amino acid residues as follows: […](Ac)NleSTEG (SEQ ID NO: 1) wherein K(Ac) is an acetylated lysine residue and Nle is a norleucine. The peptide is labeled with the fluorophore MR121 (excitation 635 nm/emission 680 nm) at the C-terminus and biotin at the N-terminus. The sequence of the peptide substrate is based on p53 with several modifications. In particular, all arginine and leucine residues other than the acetylated lysine have replaced with serine so that the peptide is not susceptible to trypsin cleavage in the absence of deacetylation. In addition, the methionine residue naturally present in the sequence has been replaced with the norleucine because the methionine may be susceptible to oxidation during synthesis and purification. […] This peptide is labeled with the fluorophore MR121 (excitation 635 nm/emission 680 nm) at the C-termini and biotin at the N-termini. The sequence of the peptide substrates are based on p53 with several modifications. In particular, all arginine and leucine residues other than the acetylated lysine residues have replaced with serine so that the peptides are not susceptible to trypsin cleavage in the absence of deacetylation. In addition, the methionine residues naturally present in the sequences have been replaced with the norleucine because the methionine may be susceptible to oxidation during synthesis and purification. […] The peptide is labeled with the fluorophore 5TMR (excitation 540 nm/emission 580 nm) at the C-terminus. The sequence of the peptide substrate is also based on p53 with several modifications. In addition, the methionine residue naturally present in the sequence was replaced with the norleucine because the methionine may be susceptible to oxidation during synthesis and purification.
The peptide substrates were exposed to a sirtuin protein in the presence of NAD^+ to allow deacetylation of the substrate and render it sensitive to cleavage by trypsin. Trypsin was then added and the reaction was carried to completion (i.e., the deacetylated substrate is cleaved) releasing the MR121 or 5TMR fragment. Streptavidin is then added to the reaction where it can bind both the uncleaved substrate (i.e., any remaining acetylated substrate) and the non-fluorescent portion of the cleaved peptide substrate (i.e., the biotin containing fragment). The fluorescence polarization signal observed for the full length peptide substrates bound to streptavidin was higher than the fluorescence polarization signal observed for the released MR121 or 5TMR C-terminal fragment. In this way, the fluorescence polarization obtained is inversely proportional to the level of deacetylation (e.g., the signal is inversely proportional to the activity of the sirtuin protein). Results were read on a microplate fluorescence polarization reader (Molecular Devices Spectramax MD) with appropriate excitation and emission filters.
The fluorescence polarization assays using peptide 1 was conducted as follows: 0.5 μM peptide substrate and 150 μM βNAD^+ is incubated with 0.1 μg/mL of SIRT1 for 60 minutes at 37° C. in a reaction buffer (25 mM Tris-acetate pH8, 137 mM Na—Ac, 2.7 mM K—Ac, 1 mM Mg—Ac, 0.05% Tween-20, 0.1% Pluronic F127, 10 mM CaCl2, 5 mM DTT, 0.025% BSA, 0.15 mM Nicotinamide). Test compounds 1-18 were solubilized in DMSO and added to the reaction at 11 concentrations ranging from 0.7 μM to 100 μM. […]

[2] = target: T1, SIRT1; assay: SIRT1 mass spectrometry (MS) based deacetylation assay; assay type: biochemical; details: for FOLD ACT. MS: fold activation of SIRT1 as determined by MS
[3] = system: NCI-H358 cells; assay: Cellular ATP Assay (ATPLite 1Step normalized to AlamarBlue viability); assay type: cell-based; details: for EC50 / IC50: Homo sapiens; for IC50: compounds that lowered intracellular ATP levels
Method: Cellular ATP levels are an indirect measurement of cellular metabolic rates and, by extension, mitochondrial function. […] The ATP assay is combined with a cellular viability assay so that cellular ATP levels can be normalized to viable cells. Cellular ATP levels were measured using the ATPLite 1Step Kit (PerkinElmer) and cellular viability was measured using the cell permeable dye, AlamarBlue™.
The Cellular ATP Assay is a multiplexed assay that measures both ATP levels and viability of a given cell sample. This assay is run in a 96-well Assay Plate and data are reported as the [ATP]/viability for each well in the Assay Plate.
The ATPLite 1 Step™ Kit is a single-step luminescent cell-based assay for detection of ATP. The kit contains lyophilized substrate mixture, comprised of D-luciferin and the firefly (Photinus pyralis) enzyme luciferase. Additionally, the kit contains a detergent-based reconstitution buffer that induces the lysis of cellular membranes. The luciferase in the assay mixture catalyzes a reaction between the free cellular ATP and D-luciferin to produce bioluminescence according to the schematic reaction outlined below. The amount of light produced is proportional to the cellular ATP concentration.
The AlamarBlue™ Assay is a single-step assay that utilizes a soluble, non-toxic, cell permeable dye that is added to cell growth media. This dye undergoes electron reduction in viable cells but not dead cells. The reduced dye product gives a fluorescent signal which can be monitored with a fluorescence plate reader (excitation 545 nm and emission 575 nm). The amount of fluorescence generated in a given well is proportional to the number of viable cells. The viability signal generated by this assay is used to normalize the ATP signal from the ATPLite 1Step™ assay results.
The material was dissolved in 100% vehicle (DMSO) to yield a final concentration of 10 mM (stock solution). The stock solution was serially diluted with 100% DMSO as described in SOP 7.10.
In this assay NCI-H358 cells (obtained from the American Tissue Culture Collection, ATCC) were seeded in 96 well microplates (10^4 cells/well). The NCI-H358 Growth Culture Media consists of RPMI 1640 Media supplemented with 10% FBS, […] streptomycin, and 100 units/mL penicillin. […] After 48 hours of compound treatment under cell growth conditions, plates were removed from incubator, and 15 μl of AlamarBlue™ dye was added to each well. Cell microplates were incubated with dye for 2 hours under growth conditions, and fluorescence was subsequently measured using a plate reader. Media containing AlamarBlue™ was removed, and plates were washed in 100 μl of PBS per well. This wash was removed, and 200 μl of 1×ATPLite 1Step reagent was added to each well. Luminescence was then measured using a plate reader. The ATP signal for each well, measured by the luminescence scan, was normalized to its corresponding cell viability value, measured by the fluorescence scan, to generate the average ATP level per viable cell unit (ATP/vCell). The ATP/vCell for each treatment was then normalized to the average vehicle ATP/vCell for its respective cell microplate, yielding the normalized ATP/vCell (norm. ATP/vCell). Finally, the norm. ATP/vCell for each unique treatment was averaged across plate replicates, generating the average norm. ATP/vCell.
Each of these ATP levels was normalized to the cell viability in the corresponding treatment well, generating the ATP/vCell value. Each ATP/vCell value was subsequently normalized to its average Vehicle ATP/vCell values for its respective cell microplate.
Data are represented as the normalized ATP/vCell (arbitrary units). […] These values represent an average of three plate replicates.
A number of compounds were screened for their affect on ATP levels in the assay as described in Example 5. […] NA means that the compound was not tested using the indicated assay.

[4] = SIRT1 activation, mass spectrometry assay, read-out: ED50 MS ASSAY
[5] = compounds that raised intracellular ATP levels, read-out: ED50 ATP ASSAY

| EC50 [2, 4] | FOLD ACT. MS [2] | Compound | EC50 [3, 5] | other results |
| --- | --- | --- | --- | --- |
| – | – | CN(C)c1cccc(C(=O)Nc2ccc(-c3nc4ncccc4o3)cc2)c1 [Compound 23] | – | IC50 [1]: > 150 µM |
| 5 to 50 µM | B (B (Fold Activation <250%)) | COc1cccc(C(=O)Nc2cccc(-c3nc4ncccc4o3)c2)c1C [Compound 49] | < 50 µM | – |
| > 150 µM | – | Cc1nc(-c2cccc(NC(=O)c3cccc(N(C)C)c3)c2)cs1 [Compound 79] | < 50 µM | – |
| – | – | O=C(Nc1ccc2c(c1)OCO2)Nc1cc(-c2nc3ccccc3o2)ccn1 [Compound 86, 1-Benzo[1,3]dioxol-5-yl-3-(4-benzoxazol-2-yl-pyridin-2-yl)-urea] | < 50 µM | EC50 [2]: > 150 µM |
| > 150 µM | – | CN(C)c1cccc(C(=O)N2CCCN(c3nc4ccccc4o3)CC2)c1 [Compound 89] | – | IC50 [3]: < 50 µM |
| – | – | O=C(Nc1ccc2c(c1)OCO2)N1CCCN(c2nc3ccccc3o2)CC1 [Compound 90] | > 150 µM | – |
| > 150 µM | – | COc1cc(C(=O)N2CCCN(c3nc4ccccc4o3)CC2)cc(OC)c1OC [Compound 91] | – | IC50 [3]: < 50 µM |
| 5 to 50 µM | B (B (Fold Activation <250%)) | Cc1nc(-c2cccc(Nc3nc4ccccc4o3)c2)cs1 [Compound 92] | – | IC50 [3]: 51 to 100 µM |
| 5 to 50 µM | B (B (Fold Activation <250%)) | c1cc(Nc2nc3ccccc3o2)cc(-c2nc3ncccc3o2)c1 [Compound 93] | > 150 µM | – |
| < 5 µM | B (B (Fold Activation <250%)) | CN(C)c1cccc(C(=O)Nc2ccccc2-c2nc3ncccc3o2)c1 [Compound 97] | < 50 µM | – |
| < 5 µM | A (A (Fold activation >250%)) | O=C(Nc1cccc(-c2nc3ccncc3s2)c1)Nc1ccc2c(c1)OCO2 [Compound 99] | < 50 µM | – |
| 5 to 50 µM | B (B (Fold Activation <250%)) | COc1ccc(NC(=O)c2cccc(-c3nc4ncccc4o3)c2)c(OC)c1 [Compound 100] | < 50 µM | – |
| 5 to 50 µM | A (A (Fold activation >250%)) | COc1ccc(NC(=O)c2cccc(-c3nc4ncccc4o3)c2)cc1OC [Compound 101] | 101 to 150 µM | – |
| 5 to 50 µM | A (A (Fold activation >250%)) | COc1cc(NC(=O)c2cccc(-c3nc4ncccc4o3)c2)cc(OC)c1OC [Compound 102, 3-(oxazolo[4,5-b]pyridin-2-yl)-N-(3,4,5-trimethoxyphenyl)benzamide] | < 50 µM | – |
| < 5 µM | B (B (Fold Activation <250%)) | c1cc(Nc2nc3ccccc3s2)nc(-c2nc3ncccc3o2)c1 [Compound 104] | < 50 µM | – |
| < 5 µM | B (B (Fold Activation <250%)) | c1cc(Nc2nc3ccccc3o2)nc(-c2nc3ncccc3o2)c1 [Compound 105] | < 50 µM | – |
| < 5 µM | B (B (Fold Activation <250%)) | COc1cc(C(=O)Nc2ccccc2-c2nc3ncccc3o2)cc(OC)c1OC [Compound 106] | < 50 µM | – |
| 5 to 50 µM | A (A (Fold activation >250%)) | COc1cc(C(=O)Nc2cccc(-c3nc4ccncc4s3)c2)cc(OC)c1OC [Compound 115] | > 150 µM | – |
| 5 to 50 µM | A (A (Fold activation >250%)) | COc1ccc(C(=O)Nc2cccc(-c3nc4cc(C)ccc4[nH]3)c2)cc1OC [Compound 117] | – | IC50 [3]: 51 to 100 µM |
| – | – | COc1cccc(OC)c1C(=O)Nc1cccc(-c2nc3ccccc3s2)c1 [Compound 120] | < 50 µM | – |
| – | – | COc1cc(C(=O)Nc2cccc(-c3nc4cc(Cl)cc(Cl)c4o3)c2)cc(OC)c1OC [Compound 123] | > 150 µM | – |
| < 5 µM | B (B (Fold Activation <250%)) | COc1cc(C(=O)Nc2cc(CO)cc(-c3nc4ccncc4s3)c2)cc(OC)c1OC [Compound 135] | < 50 µM | – |
| – | – | Oc1ccc(C=Cc2cc(O)cc(O)c2)cc1 [resveratrol, reference compound] | – | maximum increase in cellular ATP levels ([3]; 48 hours treatment, at 50 μM resveratrol, normalized ATP/vCell): 3.0 fold; EC50 ([3]; 48 hours, 50% of the maximum increase in normalized ATP/vCell, read-out: EC50 ATP): 29 µM |
